Source: patent publication US5834279A (priority 1997, dated 1998)
Read-outs that look alike come from different tables or passages of the source.

Experiments:
[1] = molecular target: M. tuberculosis topoisomerase I (Mycobacterium tuberculosis, UniProt P9WG49); type: biochemical; settings: 150 ng enzyme, 1.0 mM MgCl2
[2] = molecular target: T1, M. tuberculosis ribonucleotide reductase (Mycobacterium tuberculosis, UniProt P9WH75); assay: biochemical; type: biochemical; settings: for Maximal stimulated ribonucleotide reduction (Example 2): Example 2, written in present tense; for Maximal stimulated CDP reduction: equimolar R1 and R2, DTT as reductant
Target sequence in this assay (P9WH75 3-725): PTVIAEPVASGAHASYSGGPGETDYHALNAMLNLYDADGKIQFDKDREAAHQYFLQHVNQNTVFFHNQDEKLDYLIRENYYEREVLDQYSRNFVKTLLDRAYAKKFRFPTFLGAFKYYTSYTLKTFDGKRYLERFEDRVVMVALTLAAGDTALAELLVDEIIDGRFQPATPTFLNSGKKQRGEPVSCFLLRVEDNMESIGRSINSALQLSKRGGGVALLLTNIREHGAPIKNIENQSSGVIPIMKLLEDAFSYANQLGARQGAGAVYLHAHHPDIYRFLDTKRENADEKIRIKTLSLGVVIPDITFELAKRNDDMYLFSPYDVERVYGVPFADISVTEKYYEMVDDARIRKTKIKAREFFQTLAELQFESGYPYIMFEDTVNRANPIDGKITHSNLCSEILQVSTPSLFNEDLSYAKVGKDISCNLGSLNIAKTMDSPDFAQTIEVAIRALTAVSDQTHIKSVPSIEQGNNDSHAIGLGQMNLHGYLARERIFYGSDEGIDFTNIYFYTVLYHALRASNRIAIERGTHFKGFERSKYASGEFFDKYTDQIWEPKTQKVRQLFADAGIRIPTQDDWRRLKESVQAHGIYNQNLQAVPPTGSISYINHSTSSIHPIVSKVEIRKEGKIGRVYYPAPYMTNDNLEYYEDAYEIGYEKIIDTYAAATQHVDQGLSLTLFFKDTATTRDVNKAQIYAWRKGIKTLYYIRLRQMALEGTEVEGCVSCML

[3] = molecular target: T1, M. tuberculosis ribonucleotide reductase; type: biochemical
Target sequence in this assay (P9WH75 whole entry, looked up): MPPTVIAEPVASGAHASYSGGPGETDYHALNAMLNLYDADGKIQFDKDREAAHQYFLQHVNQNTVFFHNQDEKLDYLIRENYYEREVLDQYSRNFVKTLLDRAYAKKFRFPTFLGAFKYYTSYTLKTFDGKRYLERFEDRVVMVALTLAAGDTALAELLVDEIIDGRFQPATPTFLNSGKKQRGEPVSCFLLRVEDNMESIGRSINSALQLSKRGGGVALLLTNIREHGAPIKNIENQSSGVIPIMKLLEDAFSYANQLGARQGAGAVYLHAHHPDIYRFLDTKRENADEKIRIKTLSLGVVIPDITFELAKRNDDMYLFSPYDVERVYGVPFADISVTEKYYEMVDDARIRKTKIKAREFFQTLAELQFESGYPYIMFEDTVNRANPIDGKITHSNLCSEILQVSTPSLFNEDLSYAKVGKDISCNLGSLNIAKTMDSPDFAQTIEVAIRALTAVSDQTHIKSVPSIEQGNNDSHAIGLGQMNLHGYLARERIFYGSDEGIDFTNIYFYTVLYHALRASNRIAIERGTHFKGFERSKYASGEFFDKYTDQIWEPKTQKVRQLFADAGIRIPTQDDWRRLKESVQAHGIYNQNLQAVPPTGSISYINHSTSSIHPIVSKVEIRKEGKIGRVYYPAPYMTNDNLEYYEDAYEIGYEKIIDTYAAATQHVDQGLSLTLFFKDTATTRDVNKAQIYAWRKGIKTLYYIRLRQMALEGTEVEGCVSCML

[4] = molecular target: M. tuberculosis ribonucleotide reductase R1 (Mycobacterium tuberculosis, UniProt P9WH75); type: binding; settings: 5 mM ATP
[5] = molecular target: nrdA/nrdB ribonucleotide reductase (Escherichia coli, UniProt P00452); settings: negative effector at higher concentrations; cited from earlier work
[6] = molecular target: T2, nrdE/nrdF ribonucleotide reductase (Salmonella typhimurium, UniProt Q08698); settings: cited from earlier work
T2 construct: host or cells: recombinant expression plasmid system (as reported)

[7] = molecular target: T3, mammalian enzyme (ribonucleotide reductase) (Homo sapiens, UniProt P23921); settings: cited from earlier work
T3 sequence (P23921 1-792): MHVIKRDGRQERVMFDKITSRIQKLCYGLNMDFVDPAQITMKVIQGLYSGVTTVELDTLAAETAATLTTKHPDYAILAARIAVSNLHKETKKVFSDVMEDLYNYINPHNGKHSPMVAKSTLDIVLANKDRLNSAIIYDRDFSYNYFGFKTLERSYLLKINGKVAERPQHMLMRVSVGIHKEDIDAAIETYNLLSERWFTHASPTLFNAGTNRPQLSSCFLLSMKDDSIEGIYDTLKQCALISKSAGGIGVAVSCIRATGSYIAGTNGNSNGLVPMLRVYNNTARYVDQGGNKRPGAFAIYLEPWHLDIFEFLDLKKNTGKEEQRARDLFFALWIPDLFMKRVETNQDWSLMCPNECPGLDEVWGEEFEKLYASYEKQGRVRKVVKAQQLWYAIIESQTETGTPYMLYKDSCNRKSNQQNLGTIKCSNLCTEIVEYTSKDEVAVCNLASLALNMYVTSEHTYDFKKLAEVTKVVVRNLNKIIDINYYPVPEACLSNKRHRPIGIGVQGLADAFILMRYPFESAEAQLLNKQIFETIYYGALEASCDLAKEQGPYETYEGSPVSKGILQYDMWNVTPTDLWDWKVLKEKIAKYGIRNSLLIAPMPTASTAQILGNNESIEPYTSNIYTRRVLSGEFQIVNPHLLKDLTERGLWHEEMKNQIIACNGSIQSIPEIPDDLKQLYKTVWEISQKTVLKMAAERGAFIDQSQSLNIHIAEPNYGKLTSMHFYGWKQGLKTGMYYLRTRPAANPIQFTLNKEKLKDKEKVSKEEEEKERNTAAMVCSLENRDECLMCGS

M. smegmatis = settings: 200 μg/ml hydroxyurea; cited from earlier work
[8] = molecular target: Salmonella ribonucleotide reductase (Salmonella typhimurium, UniProt P17424); settings: cited from earlier work
[9] = molecular target: T4, calf thymus ribonucleotide reductase (Bos taurus, UniProt E1BI58); settings: cited from earlier work
T4 construct: slightly higher than that found for calf thymus; host or cells: calf thymus

[10] = 5 mg reconstituted RR (1:1 R1 to R2-2), 6 mM CDP, 2 mM ATP, 0.0-0.5 mM inhibitor, read-out: IC50, inhibition of CDP reduction activity by C-terminal R2 peptides

Sequence of M. tuberculosis topoisomerase I (P9WG49 2-896, added parts left off): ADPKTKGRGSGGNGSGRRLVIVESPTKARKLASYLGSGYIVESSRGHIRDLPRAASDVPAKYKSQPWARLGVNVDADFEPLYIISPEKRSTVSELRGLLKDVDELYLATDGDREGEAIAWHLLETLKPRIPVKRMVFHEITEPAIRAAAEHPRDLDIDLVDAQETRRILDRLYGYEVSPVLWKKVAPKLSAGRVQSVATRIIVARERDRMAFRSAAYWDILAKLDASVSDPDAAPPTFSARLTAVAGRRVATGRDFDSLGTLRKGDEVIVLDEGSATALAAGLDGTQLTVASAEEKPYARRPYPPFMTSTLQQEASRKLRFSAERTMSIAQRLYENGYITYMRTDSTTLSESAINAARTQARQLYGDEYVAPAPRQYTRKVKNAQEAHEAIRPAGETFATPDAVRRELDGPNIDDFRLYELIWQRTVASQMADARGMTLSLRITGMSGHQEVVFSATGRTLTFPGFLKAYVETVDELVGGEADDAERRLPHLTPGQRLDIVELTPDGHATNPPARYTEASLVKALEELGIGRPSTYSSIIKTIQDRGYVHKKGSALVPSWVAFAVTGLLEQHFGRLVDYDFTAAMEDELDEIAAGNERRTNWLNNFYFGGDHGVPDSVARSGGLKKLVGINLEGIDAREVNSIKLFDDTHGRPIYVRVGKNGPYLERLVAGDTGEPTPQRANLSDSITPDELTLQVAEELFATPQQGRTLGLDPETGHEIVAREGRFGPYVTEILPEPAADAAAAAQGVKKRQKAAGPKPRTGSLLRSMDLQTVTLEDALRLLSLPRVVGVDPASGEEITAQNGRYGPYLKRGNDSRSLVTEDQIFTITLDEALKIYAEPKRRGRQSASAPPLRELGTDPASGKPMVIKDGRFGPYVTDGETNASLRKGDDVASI
Sequence of M. tuberculosis ribonucleotide reductase R1 (P9WH75 3-725 limits assumed): as the sequence (P9WH75 3-725) above
T4 sequence (E1BI58 entry or part of it): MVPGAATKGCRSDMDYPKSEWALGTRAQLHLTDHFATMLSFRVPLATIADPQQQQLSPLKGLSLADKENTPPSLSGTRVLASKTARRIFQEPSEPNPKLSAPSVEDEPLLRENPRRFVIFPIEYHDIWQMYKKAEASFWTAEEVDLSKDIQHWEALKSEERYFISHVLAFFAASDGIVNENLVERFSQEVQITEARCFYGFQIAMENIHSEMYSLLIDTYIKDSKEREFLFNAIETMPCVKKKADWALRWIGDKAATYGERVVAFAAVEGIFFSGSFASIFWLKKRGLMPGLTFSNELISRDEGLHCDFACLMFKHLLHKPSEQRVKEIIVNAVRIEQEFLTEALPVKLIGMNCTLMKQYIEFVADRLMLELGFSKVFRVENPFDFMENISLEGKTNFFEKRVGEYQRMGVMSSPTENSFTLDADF
Sequence of Salmonella ribonucleotide reductase (P17424 whole entry): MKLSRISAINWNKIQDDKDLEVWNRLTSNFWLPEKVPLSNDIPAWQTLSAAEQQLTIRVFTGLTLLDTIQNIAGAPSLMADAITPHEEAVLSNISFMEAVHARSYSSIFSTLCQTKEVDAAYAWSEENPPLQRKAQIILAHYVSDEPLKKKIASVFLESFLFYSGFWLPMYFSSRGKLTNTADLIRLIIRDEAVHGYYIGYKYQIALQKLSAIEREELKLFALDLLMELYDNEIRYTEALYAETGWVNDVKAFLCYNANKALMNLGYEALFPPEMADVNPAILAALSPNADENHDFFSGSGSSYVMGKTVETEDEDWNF
T2 sequence (P17424 whole entry): as above
T2 sequence (Q08698 whole entry): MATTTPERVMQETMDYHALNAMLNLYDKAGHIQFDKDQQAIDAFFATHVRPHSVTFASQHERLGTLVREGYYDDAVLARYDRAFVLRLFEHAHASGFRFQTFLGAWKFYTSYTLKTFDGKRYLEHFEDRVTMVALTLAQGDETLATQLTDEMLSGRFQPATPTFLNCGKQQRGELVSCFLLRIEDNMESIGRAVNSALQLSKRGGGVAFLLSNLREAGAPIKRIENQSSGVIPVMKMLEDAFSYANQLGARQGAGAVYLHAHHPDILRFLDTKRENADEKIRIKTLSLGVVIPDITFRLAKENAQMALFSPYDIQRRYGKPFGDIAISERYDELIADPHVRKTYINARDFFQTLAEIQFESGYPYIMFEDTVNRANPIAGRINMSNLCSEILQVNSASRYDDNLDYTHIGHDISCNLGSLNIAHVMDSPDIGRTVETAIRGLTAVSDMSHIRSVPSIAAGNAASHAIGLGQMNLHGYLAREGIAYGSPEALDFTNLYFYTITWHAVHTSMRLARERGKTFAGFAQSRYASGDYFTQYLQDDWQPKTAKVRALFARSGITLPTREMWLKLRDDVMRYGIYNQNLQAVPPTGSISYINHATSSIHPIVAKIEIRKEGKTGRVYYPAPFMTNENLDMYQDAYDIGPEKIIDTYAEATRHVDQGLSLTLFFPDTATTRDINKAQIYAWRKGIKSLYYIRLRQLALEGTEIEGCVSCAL

Nc1ncnc2c1ncn2[C@@H]1O[C@H](COP(=O)(O)OP(=O)(O)OP(=O)(O)O)[C@@H](O)[C@H]1O [ATP]
Effect of ATP on DNA relaxing activity ([1]; 0.4-1.6 mM ATP): inhibited the reaction
Concentration above which the effector inhibited the activity [2]: higher than 2 mM
Optimum concentration of activator for CDP reduction [2]: 1 to 2 mM
Maximal stimulated ribonucleotide reduction (Example 2) [2]: up to 45 pmoles deoxyribonucleotide in 20 min
Maximal stimulated CDP reduction [2]: up to 45 pmoles dCDP in 20 min
Effect of nucleotide effector on ribonucleotide reductase activity of native enzyme [3]: stimulated
Labeling of the 84,000 Da band by [alpha-32P]dATP [4]: completely inhibited

Nc1ncnc2c1ncn2[C@H]1C[C@H](O)[C@@H](COP(=O)(O)OP(=O)(O)OP(=O)(O)O)O1 [dATP]
Concentration up to which dATP activates, nrdA/nrdB system [5]: up to 1 uM
Maximal stimulated ribonucleotide reduction (Example 2) [2]: ≤ 13 pmoles deoxyribonucleotide in 20 min
Maximal stimulated CDP reduction [2]: ≤ 13 pmoles dCDP in 20 min
Highest concentration at which the effector still stimulated reduction ([2]; inhibition at higher concentrations): ≤ 1 mM
Concentration up to which dATP is a positive allosteric activator, nrdE/nrdF system [6]: up to 1 mM
Effect of nucleotide effector on ribonucleotide reductase activity of native enzyme [3]: inhibited
dATP concentration above which inhibition is seen in the mammalian system [7]: greater than 0.1 mM

NC(=O)NO [hydroxyurea]
IC50 ([2]; read-out: IC50, inhibition of the activity of CDP reduction by hydroxyurea): 2000 µM
Growth of M. smegmatis (M. smegmatis): completely inhibited
IC50 [8]: ~500 µM
IC90 [9]: 1 mM

NCCCCNCCCN [spermidine]
DNA relaxing activity in the presence of spermidine ([1]; 4.0 mM spermidine): almost completely inhibited

Ac-EDDDWDF-OH [R2P7-2, Acetyl-EDDDWDF-OH]
IC50 [2, 10]: 15 to 20 µM

Ac-TDTDWDF-OH [R2P7-1, Acetyl-TDTDWDF-OH]
IC50 [2, 10]: 100 µM
